In patent publication US5620958A, “Bradykinin antagonists” (Coretech, Inc., priority 1994, dated 1997):
Square brackets hold non-standard residues; d marks the D form. Peptide text beside a SMILES is read from it. Oic = O=C(O)[C@@H]1C[C@@H]2CCCC[C@@H]2N1; Hyp = O=C(O)[C@@H]1C[C@@H](O)CN1; dTic = O=C(O)[C@H]1Cc2ccccc2CN1; 2Thi = N[C@@H](Cc1cccs1)C(=O)O

What was measured:
[1] = biological target: T1, BK2 receptor (Cavia porcellus, UniProt O70526); experiment: guinea-pig ileum (GPI) in vitro, antagonism of BK; type: cell-based; details: Table B; read-out: pA2 GUINEA PIG ILEUM (converted)
T1 construct: tested for activity on guinea pig ileum in vitro on the standard tissue bath/strain gauge system; from tissue; host or cells: guinea pig ileum
T1 sequence (O70526 1-372): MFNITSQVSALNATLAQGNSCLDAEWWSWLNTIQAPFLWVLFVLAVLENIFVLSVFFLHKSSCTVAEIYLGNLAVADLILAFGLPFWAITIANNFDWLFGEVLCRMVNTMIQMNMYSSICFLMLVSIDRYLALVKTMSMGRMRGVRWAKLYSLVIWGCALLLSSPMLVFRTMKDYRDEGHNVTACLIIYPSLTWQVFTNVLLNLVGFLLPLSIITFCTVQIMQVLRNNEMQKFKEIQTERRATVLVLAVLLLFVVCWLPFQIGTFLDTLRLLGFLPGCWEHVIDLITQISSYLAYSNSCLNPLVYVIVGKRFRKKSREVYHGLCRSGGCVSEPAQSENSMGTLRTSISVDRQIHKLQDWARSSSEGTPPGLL
Method: Thus, in vitro studies were performed on standard assay systems, namely, guinea-pig ileum (GPI), rat uterus (RU) and rabbit jugular vein (RJV). […] The potency of each compound was assessed as a pA2 value according to the method of Arunlakshana & Schild, Br. J. Pharmacol. Chemother., 1.4:48-58 (1959). The pA2 can be defined as the negative logarithm of the molar concentration of the antagonist in the presence of which the potency of the agonist is reduced two-fold, i.e., twice the amount of agonist is required to produce a given response in the presence of, than in the absence of, the antagonist. A high potency of antagonism is indicated by a high pA2 value, i.e., a low concentration of antagonist is effective.
The percentage recovery (% Rec) was also determined for compounds with respect to each assay.
The various compounds identified in Table B below were prepared following the procedure of Example 1 with the Cys moiety introduced into the parent CP-0088 at the position indicated followed by reaction between the sulfhydryl group of the Cys residue and BMH to provide dimers as indicated. The Cys-modified monomers and the resultant dimers were tested for activity on guinea pig ileum in vitro on the standard tissue bath/strain gauge system as before.

[2] = biological target: T2, BK2 receptor (Oryctolagus cuniculus, UniProt Q28642); experiment: blood pressure response to BK2 agonist in LPS-pretreated rabbits; type: in vivo, rabbit; parameters: key to OBSERVED ANTAGONIST ACTIVITY BK2: +: indicates complete blockade of the blood pressure response to the appropriate agonist; +/-: indicates partial blockade; -: indicates no observable effect at the dose indicated; details: rabbits given LPS (10 μg) 20 hours before
T2 construct: when administered to an intact animal; from tissue; host or cells: whole rabbit (systemic arterial blood pressure), LPS-pretreated
T2 sequence (Q28642 1-367): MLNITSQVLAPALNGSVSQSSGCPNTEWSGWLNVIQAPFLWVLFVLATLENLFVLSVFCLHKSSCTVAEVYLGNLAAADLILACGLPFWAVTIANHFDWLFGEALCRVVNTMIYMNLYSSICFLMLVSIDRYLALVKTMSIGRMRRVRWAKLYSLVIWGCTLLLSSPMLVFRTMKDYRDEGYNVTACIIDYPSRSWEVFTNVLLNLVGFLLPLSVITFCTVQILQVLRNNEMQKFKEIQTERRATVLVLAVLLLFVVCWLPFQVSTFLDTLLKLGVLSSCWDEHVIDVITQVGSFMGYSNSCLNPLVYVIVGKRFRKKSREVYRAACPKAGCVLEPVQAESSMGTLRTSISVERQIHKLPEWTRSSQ

[3] = biological target: T3, BK1 receptor (Oryctolagus cuniculus, UniProt P48748); experiment: blood pressure response to BK1 agonist in LPS-pretreated rabbits; type: in vivo, rabbit; details: rabbits given LPS (10 μg) 20 hours before
T3 construct: when administered to an intact animal; from tissue; host or cells: whole rabbit (systemic arterial blood pressure), LPS-pretreated
T3 sequence (P48748 1-352): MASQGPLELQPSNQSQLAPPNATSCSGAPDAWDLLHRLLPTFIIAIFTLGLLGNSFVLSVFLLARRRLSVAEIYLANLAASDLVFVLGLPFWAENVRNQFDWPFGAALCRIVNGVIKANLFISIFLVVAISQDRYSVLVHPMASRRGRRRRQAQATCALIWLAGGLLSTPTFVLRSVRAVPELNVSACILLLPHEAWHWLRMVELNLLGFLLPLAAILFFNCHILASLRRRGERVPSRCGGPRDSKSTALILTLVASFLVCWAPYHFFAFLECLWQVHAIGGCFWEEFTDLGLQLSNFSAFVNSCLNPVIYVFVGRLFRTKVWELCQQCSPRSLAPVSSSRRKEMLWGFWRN

Compound	Kb [1] [nM]	OBSERVED ANTAGONIST ACTIVITY BK2 ([2]; 1 μg kg^-1 min^-1)	OBSERVED ANTAGONIST ACTIVITY BK2 ([2]; 3 μg kg^-1 min^-1)	OBSERVED ANTAGONIST ACTIVITY BK2 ([2]; 10 μg kg^-1 min^-1)	OBSERVED ANTAGONIST ACTIVITY BK1 ([3]; 1 μg kg^-1 min^-1)	OBSERVED ANTAGONIST ACTIVITY BK1 ([3]; 3 μg kg^-1 min^-1)	OBSERVED ANTAGONIST ACTIVITY BK1 ([3]; 10 μg kg^-1 min^-1)
CC(C)C[C@H](NC(=O)[C@@H](Cc1ccccc1)NC(=O)[C@H](CO)NC(=O)[C@H](Cc1ccccc1)NC(=O)CNC(=O)[C@@H]1C[C@@H](O)CN1C(=O)[C@H](CS)NC(=O)[C@H](CCCNC(=N)N)NC(=O)[C@H](N)CCCNC(=N)N)C(=O)N[C@@H](CCCNC(=N)N)C(=O)O [CP-0142] (HELM PEPTIDE1{[dR].R.C.[Hyp].G.F.S.[dF].L.R}$$$$V2.0)	> 1000						
CC(C)C[C@H](NC(=O)[C@@H](Cc1ccccc1)NC(=O)[C@H](CO)NC(=O)[C@H](Cc1ccccc1)NC(=O)CNC(=O)[C@H](CS)NC(=O)[C@@H]1CCCN1C(=O)[C@H](CCCNC(=N)N)NC(=O)[C@H](N)CCCNC(=N)N)C(=O)N[C@@H](CCCNC(=N)N)C(=O)O [CP-0143] (HELM PEPTIDE1{[dR].R.P.C.G.F.S.[dF].L.R}$$$$V2.0)	200						
CC(C)C[C@H](NC(=O)[C@@H](Cc1ccccc1)NC(=O)[C@H](CO)NC(=O)[C@H](CS)NC(=O)CNC(=O)[C@@H]1C[C@@H](O)CN1C(=O)[C@@H]1CCCN1C(=O)[C@H](CCCNC(=N)N)NC(=O)[C@H](N)CCCNC(=N)N)C(=O)N[C@@H](CCCNC(=N)N)C(=O)O [CP-0144] (HELM PEPTIDE1{[dR].R.P.[Hyp].G.C.S.[dF].L.R}$$$$V2.0)	398						
CC(C)C[C@H](NC(=O)[C@@H](Cc1ccccc1)NC(=O)[C@H](CO)NC(=O)[C@H](Cc1ccccc1)NC(=O)CNC(=O)[C@@H]1C[C@@H](O)CN1C(=O)[C@@H]1CCCN1C(=O)[C@H](CCCNC(=N)N)NC(=O)[C@H](N)CS)C(=O)N[C@@H](CCCNC(=N)N)C(=O)O [CP-0149] (HELM PEPTIDE1{[dC].R.P.[Hyp].G.F.S.[dF].L.R}$$$$V2.0)	200						
CC(C)C[C@H](NC(=O)[C@@H](Cc1ccccc1)NC(=O)[C@H](CO)NC(=O)[C@H](Cc1ccccc1)NC(=O)CNC(=O)[C@@H]1C[C@@H](O)CN1C(=O)[C@@H]1CCCN1C(=O)[C@H](CCCNC(=N)N)NC(=O)[C@@H](N)CSC1CC(=O)N(CCCCCCN2C(=O)CC(SC[C@H](N)C(=O)N[C@@H](CCCNC(=N)N)C(=O)N3CCC[C@H]3C(=O)N3C[C@H](O)C[C@H]3C(=O)NCC(=O)N[C@@H](Cc3ccccc3)C(=O)N[C@@H](CO)C(=O)N[C@H](Cc3ccccc3)C(=O)N[C@@H](CC(C)C)C(=O)N[C@@H](CCCNC(=N)N)C(=O)O)C2=O)C1=O)C(=O)N[C@@H](CCCNC(=N)N)C(=O)O (stereo partly drawn) [CP-0152] (HELM PEPTIDE1{C.R.P.[Hyp].G.F.S.[dF].L.R}|PEPTIDE2{C.R.P.[Hyp].G.F.S.[dF].L.R}|CHEM1{[O=C1CC([*:1])C(=O)N1CCCCCCN1C(=O)CC([*:2])C1=O]}$PEPTIDE1,CHEM1,1:R3-1:R1|PEPTIDE2,CHEM1,1:R3-1:R2$$$V2.0)	> 1000						
CC(C)C[C@H](NC(=O)[C@@H](Cc1ccccc1)NC(=O)[C@H](CO)NC(=O)[C@H](Cc1ccccc1)NC(=O)CNC(=O)[C@@H]1C[C@@H](O)CN1C(=O)[C@@H]1CCCN1C(=O)[C@H](CSC1CC(=O)N(CCCCCCN2C(=O)CC(SC[C@H](NC(=O)[C@H](N)CCCNC(=N)N)C(=O)N3CCC[C@H]3C(=O)N3C[C@H](O)C[C@H]3C(=O)NCC(=O)N[C@@H](Cc3ccccc3)C(=O)N[C@@H](CO)C(=O)N[C@H](Cc3ccccc3)C(=O)N[C@@H](CC(C)C)C(=O)N[C@@H](CCCNC(=N)N)C(=O)O)C2=O)C1=O)NC(=O)[C@H](N)CCCNC(=N)N)C(=O)N[C@@H](CCCNC(=N)N)C(=O)O (stereo partly drawn) [CP-0153] (HELM PEPTIDE1{[dR].C.P.[Hyp].G.F.S.[dF].L.R}|PEPTIDE2{[dR].C.P.[Hyp].G.F.S.[dF].L.R}|CHEM1{[O=C1CC([*:1])C(=O)N1CCCCCCN1C(=O)CC([*:2])C1=O]}$PEPTIDE1,CHEM1,2:R3-1:R1|PEPTIDE2,CHEM1,2:R3-1:R2$$$V2.0)	25.1						
N=C(N)NCCC[C@@H](N)C(=O)N[C@@H](CCCNC(=N)N)C(=O)N1CCC[C@H]1C(=O)N1C[C@H](O)C[C@H]1C(=O)NCC(=O)N[C@@H](Cc1ccccc1)C(=O)N[C@@H](CO)C(=O)N1Cc2ccccc2C[C@@H]1C(=O)N1[C@H](C(=O)O)C[C@@H]2CCCC[C@@H]21 [CP-0267] (HELM PEPTIDE1{[dR].R.P.[Hyp].G.F.S.[O=C([C@H]1Cc2ccccc2CN1[*:1])[*:2]].[O=C(O)[C@@H]1C[C@@H]2CCCC[C@@H]2N1[*:1]]}$$$$V2.0)		-	-	+/-	-	-	+
CC(C)C[C@H](NC(=O)[C@@H]1CCCN1C(=O)[C@H](CO)NC(=O)[C@H](Cc1ccccc1)NC(=O)CNC(=O)[C@@H]1CCCN1C(=O)[C@@H]1CCCN1C(=O)[C@H](CCCNC(=N)N)NC(=O)[C@@H](N)CCCCN)C(=O)O [CP-0298, Lys^0Arg^1Pro^2Pro^3Gly^4Phe^5Ser^6Pro^7Leu^8, reference compound]		-	-	-	+	+	+
N=C(N)NCCC[C@@H](N)C(=O)N[C@@H](CCCNC(=N)N)C(=O)N1CCC[C@H]1C(=O)N1C[C@H](O)C[C@H]1C(=O)NCC(=O)N[C@@H](Cc1cccs1)C(=O)N[C@@H](CO)C(=O)N1Cc2ccccc2C[C@@H]1C(=O)N1[C@H](C(=O)O)C[C@@H]2CCCC[C@@H]21 [CP-0345] (H-[dR]RP[Hyp]G[2Thi]S[dTic][Oic]-OH; N-terminus and C-terminus assumed)		-	+/-	+	-	+	+
CC(C)C[C@H](NC(=O)[C@@H](Cc1ccccc1)NC(=O)[C@H](CO)NC(=O)[C@H](Cc1ccccc1)NC(=O)CNC(=O)[C@@H]1C[C@@H](O)CN1C(=O)[C@@H]1CCCN1C(=O)[C@H](CSC1CC(=O)N(CCCCCCN2C(=O)CC(SC[C@H](NC(=O)[C@H](Cc3ccccc3)NC(=O)CNC(=O)[C@@H]3C[C@@H](O)CN3C(=O)[C@@H]3CCCN3C(=O)[C@H](CCCNC(=N)N)NC(=O)[C@H](N)CCCNC(=N)N)C(=O)N[C@H](Cc3ccccc3)C(=O)N[C@@H](CC(C)C)C(=O)N[C@@H](CCCNC(=N)N)C(=O)O)C2=O)C1=O)NC(=O)[C@H](N)CCCNC(=N)N)C(=O)O (stereo partly drawn) [CP-0386] (HELM PEPTIDE1{[dR].R.P.[Hyp].G.F.C.[dF].L.R}|PEPTIDE2{[dR].C.P.[Hyp].G.F.S.[dF].L}|CHEM1{[O=C1CC([*:1])C(=O)N1CCCCCCN1C(=O)CC([*:2])C1=O]}$PEPTIDE1,CHEM1,7:R3-1:R1|PEPTIDE2,CHEM1,2:R3-1:R2$$$V2.0; N-terminus and C-terminus assumed)		+	+	+	+	+	+
